“And” between values parts separate entries of the source, which are not always exact repeats. Equal entries are not always repeated.
Columns and labels:
[1] = tested on: thrips insects (Frankliniella occidentalis); test: residual activity on filter paper against thrips; format: in vivo; details: residue on filter paper, rehydrated 24 and 72 hours after spraying; thrips mortality after one hour
Experimental: In the first experiment, two ml of two concentrations of CNMA (0.3 and 1%) were sprayed on filter paper (Whatman). As a negative control, two ml of water also were sprayed on filter paper. Twenty-four hours later, two ml of water were sprayed on treatment and control filter paper, which were then dried for 30 min. Approximately 30 thrips insects (Frankliniella occidentalis) were introduced and the number of F. occidentalis were observed after one hour. Mean mortality was calculated for each treatment.
After 72 hours, the treatment filter papers were flipped over and only the negative control filter paper and the filter paper treated with 1% CNMA were sprayed with 2 ml of water and allowed to dry for 30 minutes. Approximately 30 thrips were introduced to the two treated filter papers and after one hour the number of dead F. occidentalis were observed and the mean mortality calculated for each treatment. A similar assay was conducted using a-hexyl cinnamaldehyde. Mean mortality was higher for rehydrated filter papers compared to non-rehydrated filter papers over time.

[2] = 25° C; cited from earlier work
[3] = tested on: melon aphid (Aphis gossypii Glover); test: melon aphid on chrysanthemum leaves, 5% HCA formulations; format: in vivo; details: 5% HCA (emulsion with 1% Tween 20 in water, or microencapsulated); 24 hours
Experimental: For each test, treatment cartons received the active ingredient as a 5% aqueous emulsion or as microcapsules in either beeswax or carnauba wax. The negative control was a water only treatment. Sprays of each treatment were applied using a laboratory spray tower calibrated to spray the field equivalent of 113 liters per acre. The paper carton arenas were maintained at room temperature. Experimental cartons were examined at 24 hours post-treatment and % mortality determined (see FIG. 3). Every treatment regimen killed 100% of the melon aphids at 24 hours.

[4] = tested on: grape phylloxera eggs; test: whole plant or invertebrate
Experimental: Mixed age groups of 60 grape phylloxera eggs were established on filter paper (Whatman #1, 5.5 cm circles) in 50×9 mm sealed plastic petri dishes treated with 100 μl of solution. A selected concentration of a test formulation of 400 μl was added to the filter disk and the dish closed with the petri dish cover and placed in a plastic container box. After 6 hours, the box was placed in an environmental chamber at 24° C. in the dark. The eggs were placed in groups of 10. After one week, the percentage of hatch is determined. In an initial test, doses from 0.1 to 25,000 ppm cinnamic aldehyde in 6% NaHCO3 and 2% Tween 80 were evaluated with a single group of eggs at each dosage. Three replicates of the experiment were performed. […] LD50 and LD95 were determined by probit analysis.
Grape phylloxera eggs were treated with cinnamaldehyde (CNMA) in a 6% NaHCO3, 2% Tween-80 formulation in a laboratory bioassay. Mortality of the eggs was indicated by failure of the egg shell to split. […] Leaves of one-year-old greenhouse Vitis vinifera cultivar Merlot vines heavily infested with grape phylloxera were sprayed to run-off with a CNMA treatment using the same formulation. […] Roots taken from plants 1, 2 and 5 weeks after CNMA or other treatments were placed in Petri dish bioassays and infested with untreated phylloxera eggs.
Eggs of various age classes were placed on Whatman #1 filter paper moistened with enough treatment solution to form a meniscus about halfway up the sides of the eggs. The pieces of filter paper with eggs were maintained in sealed plastic Petri dishes at […] until they were 7 days old and then hatched individuals were counted. Hatch was considered successful if the […]

[5] = tested on: rust; test: rust (and spores) on roses, disease rating / MPDC after foliar spray; format: in vivo, Phragmidrium mucronatrum
Experimental: (§1) Each formulation is evaluated for its effect on specific pests and/or plant host using any of the compounds of formula (1) as well as other components of the formulation such as Tween 80 and/or sodium bicarbonate, with the combination and effective amount of each component adapted for a particular application to minimize toxicity while maintaining or increasing the antipathogenic effect of the formulation. The effective amount of each component may be determined by systematically varying the amount of that component in a test formulation, treating a plant of interest with the test formulation, and monitoring the level of pest infestation compared to an untreated control plant. An effective amount of a test component is identified as the amount that controls the growth of the pathogen on the plant host, thus reducing the disease rating of the plant. The mean percentage disease […] (MPDC) can be calculated for each particular application. MPDC is defined by the formula: [formula] Eight cultivars of rose were tested to investigate the effect of a cinnamic aldehyde/NaHCO3 formulation on rust and spores. The cultivars used included Moss unnamed (Moss), […], Rosette Delize (Hybrid Tea), Rosa Rugosa Rubra (Rugosa), Abel Morrison (Hybrid perpetual), John Laing, Betty Prior, and Rose de Roi. […] The Hybrid Tea and Hybrid perpetual were rated 3 and the Rugosa was rated 1. […] Control plants received no treatment. […] Moreover, the treatment appeared to have induced systemic resistance. […] Plants were an average of 0.86 m apart. […] Controls were untreated plants. […] Weekly reviews were made of the various plants. […] Six cultivars of infected rose in dedicated experimental rose gardens were used. Four Mrs. John Laing (Hybrid perpetual) and two Marchionese of Londonderry (Hybrid perpetual) rose plants were treated with one of two formulations of coniferyl aldehyde. […] The first two Mrs. […] Mrs. […] Both Marchionese of Londonderry plants (P5 and P6) were rated 5 for powdery mildew and rust after Paulus and Nelson (supra). Two treatment formulae were used for this trial. […] Control plants were sprayed with water alone. The change in the rating from pre-treatment to post-treatment was calculated as the mean percentage of disease control (MPDC) as described herein.

[6] = tested on: powdery mildew; test: powdery mildew on roses, disease rating / MPDC after foliar spray; format: in vivo, Sphaerotheca pannosa; details: for Powdery Mildew, Post (rating): ~100 ml spray; for Mean % Disease Control, rose powdery mildew: single 100 ml foliar spray
Experimental: as §1, with “herein. A three treatment experiment with cinnamic aldehyde formula, coniferyl aldehyde formula and combined cinnamic and coniferyl aldehyde formula was carried out on field grown roses known to be susceptible to powdery mildew. The plants were blocked by variety before fungicide treatments and were randomized as to the plants. Two varieties were used in each of the three experiments described below. […] In experiment 3 Comte de Chambord (Portland) and Madame Pierre Oger (Bourbon) were used. In Experiment 1, the effect of cinnamic aldehyde alone and in combination with Tween 80 and/or NaHCO3 component was evaluated in experiment 2 the effect of coniferyl aldehyde alone and in combination with Tween 80 and/or NaHCO3 was evaluated and in experiment 3 a combination of cinnamic aldehyde and coniferyl aldehyde with Tween 80 and/or NaHCo3 was evaluated. […] See Table 3 for the treatment protocol; formula 1 was used for these experiments. […] Plants were evaluated using the Paulus/Nelson scale just prior to and four days after treatment. […] Moreover, cinnamic aldehyde, coniferyl aldehyde, Tween 80 and NaHCO3 are used in the food industry and there is likely to be little toxicological risk to the consumer or handler from any horticultural or food crop sprayed in this way. Similarly, as these chemicals leave no toxic residue, there is little chance of any detrimental effect on the wider environment, and their use is likely to be compatible with current biological control methods such as beneficial insects and/or microorganisms.” for “herein.”

[7] = tested on: aphids; test: aphids on sprayed roses; format: in vivo; details: plants P3 (T2) and P4 (T1), each with >35 insects before treatment
[8] = T1 low dose: 5 g coniferyl aldehyde, 10 g Tween 80, 80 g NaHCO3 per 1000 g, plants P1, P4, P6
[9] = T2 high dose: 100 g coniferyl aldehyde, 20 g Tween 80, 120 g NaHCO3 per 1000 g, plants P2, P3, P5
[10] = baseline before T1 low dose, plants P1, P4, P6
[11] = baseline before T2 high dose, plants P2, P3, P5
[12] = 1000 ppm in 6% NaHCO3, 2% Tween 80, 7 days

## CCCCCC/C(C=O)=C/c1ccccc1 [HCA, 2-hexyl-3-phenyl-2-propenal]
[1]
  residual activity: have residual activity
[2]
  vapor pressure: 70×10^−5 mm Hg
[3]
  melon aphids killed: 100%
[4]; 560 ppm, egg tests with CNMA analogs
  egg hatch failure / mortality at 560 ppm: no hatch failure at 560 ppm; rapid
[4]; Daktulosphaira vitifoliae, read-out: rapid nymphal mortality
  mortality at 100 ppm: 100%

## CCN(CC)c1cccc(C)c1 [N,N-diethyl-m-toluamine, reference compound]
[2]
  vapor pressure: 167×10^−5 mm Hg

## COc1cc(/C=C/C=O)ccc1O [coniferyl aldehyde]
[5]; [8]
  Rust (rating), Change: 1 and 2
[5]; [9]
  Rust (rating), Change: 3 and 4
  Rust (rating), Post: 2 (2=26-50) and 1 (1=1-25)
[5]; [10]
  Rust (rating), Pre: 3 (3=51-75) and 4 (4=76-90)
[5]; [11]
  Rust (rating), Pre: 5 (5=>90% total leaves per bush)
[6]; [8]
  Powdery Mildew, Post (rating): 2 (2=26-50) and 1 (1=1-25)
[6]; [9]
  Powdery Mildew, Change in rating: 3 and 4
  Powdery Mildew, Post (rating): 2 (2=26-50) and 1 (1=1-25)
[6]; aldehyde 5 g (mixture 2.5 g + 2.5 g) with NaHCO3 (80 g), four days
  Mean % Disease Control, rose powdery mildew: 44%
[6]; aldehyde 5 g (mixture 2.5 g + 2.5 g) with T80 (10 g), four days
  Mean % Disease Control, rose powdery mildew: 44%
[6]; aldehyde 5 g (mixture 2.5 g + 2.5 g) with T80 + NaHCO3 (formulas G, M, Q), four days
  Mean % Disease Control, rose powdery mildew: 81%
[6]; aldehyde 5 g (mixture 2.5 g + 2.5 g), no additive, rated four days after treatment
  Mean % Disease Control, rose powdery mildew: 56%
[6]; [10]
  Powdery Mildew, Pre (rating): 3 (3=51-75) and 4 (4=76-90)
[6]; [11]
  Powdery Mildew, Pre (rating): 5 (5=>90% total leaves per bush)
[4]; [12]
  eggs hatched incompletely (IH): 85%
  nymphs that died in the shell (DIS): 12%
[4]; 5000 ppm aldehyde in 6% NaHCO3, 2% Tween 80, 7 days
  nymphs that died in the shell (DIS): 10%
[7]
  aphids on treated rose plants: eliminated

From US20030005484A1, “Microbiocidal and pesticidal aromatic aldehydes” (ProGuard, Inc., priority 1994, published 2003)
